Among the data in patent US8691820B2, “CDK inhibitors” (Curis, Inc., priority 2008, dated 2014) are IC50 values, retold here.

One may read the IC50 as the concentration needed to halve the response being measured. A low value points to greater potency.

The assay deals with T1, CDK2/cyclinA (Homo sapiens, UniProt P24941).
T1 construct: C-terminal 6His-tagged human full length cdk2 (MW=35 kDa); 6His (C); made in house; host or cells: Sf21 insect cells (baculovirus)
Briefly: CDK2 kinase assay (33P-ATP, Histone H1 substrate). The class given is biochemical. As to conditions: 1 μM ATP, 5 μM Histon H1, 2 hours at room temperature. The source says:
CDK2/cyclinA (Accession number for CDK2; EMBL M68520, for cyclin A; EMBL X51688): C-terminal 6His-tagged human full length cdk2 (MW=35 kDa), and N-terminal GST-tagged human full length cyclin A (MW=75 kDa) were expressed individually with baculovirus system in Sf21 insect cells. Recombinant cdk2 protein was purified with Ni2+/NTA agarose and then activated using CAK and repurified by Q Sepharose and Ni2+/NTA agarose. Recombinant cyclin A was purified using glutathione-agarose. They were then mixed in vitro to form protein complex. Recombinant protein complex was measured to be 67% in purity with SDS-PAGE and Coomassie blue staining. Specific activity of purified enzyme was measured to be 158 U/mg, where one unit of cdk2/cyclinA activity is defined as 1 nmol phosphate incorporated into 0.1 mg/ml histone H1 per minute at 30° C. with a final ATP concentration of […]. Enzyme was stored at a concentration of 0.1 mg/ml in 50 mM Tris/HCl pH7.5, 150 mM NaCl, 0.1 mM EGTA, 0.03% Brij-35, 270 mM sucrose, 1 mM benzamidine, 0.2 mM PMSF, 0.1% 2-mercaptoethanol. Frozen solution.
Histon H1 (Substrate for CDK2): Histone H1 (Sigma cat#H4524), was purified as a lysine rich fraction from calf thymus with 93% purity (MW=21.5 kDa). Purified protein was stored at a concentration of 20 mg/ml=930 μM in distilled water.
[…] (0.5 nmol) and 5 μM Histon H1 were mixed in the reaction buffer (20 mM HEPES (pH 7.5), 10 mM MgCl2, 1 mM EGTA, 0.02% Brij 35, 0.02 mg/ml BSA, 0.1 mM Na3VO4, 2 mM DTT) with final concentration of 1 μM ATP and 1% DMSO. The reaction was incubated for 2 hours at room temperature and conversion rate of ATP is about 4.5%. An equal volume of 25% TCA was added to stop the reaction and precipitate the labeled peptides. Precipitated proteins were trapped onto glass fiber B filterplates and excess […] p33 ATP was washed off. The plates were allowed to air-dry prior to the addition of 30 uL/well of Packard Microscint 20. The amount of incorporated isotope was measured using a Perkin Elmer TopCount plate reader. Different concentrations of compounds were added to reaction to assess the activity of compounds to inhibit […]. IC50 was calculated using Prism software with sigmoidal dose-response curve fitting.
The following TABLE B lists compounds representative of the invention and their activity in the CDK2 assay. In this assay, the following grading was used: I≧10 μM, 10 μM>II>1 μM, 1 μM>III>0.1 μM, and IV≦0.1 μM for IC50.
On to `CC(C)(C)c1cnc(CSc2cnc(NC(=O)CCCCCCC(=O)n3nc(N)c4ccccc43)s2)o1` [Compound 48], for which the IC50 is at most 100 nM.
`CC(C)(C)c1cnc(CSc2cnc(NC(=O)Cc3ccc(OCCCC(=O)Nc4ccc(F)cc4N)cc3)s2)o1` [Compound 59, N-(2-amino-4-fluorophenyl)-4-(4-(2-(5-((5-tert-butyloxazol-2-yl)methylthio)thiazol-2-ylamino)-2-oxoethyl)phenoxy)butanamide] registered an IC50 of at most 100 nM.
Molecule `CC(C)(C)c1cnc(CSc2cnc(NC(=O)Cc3ccc(OCCCC(=O)Nc4ccccc4N)cc3)s2)o1` [Compound 34, N-(2-aminophenyl)-4-(4-(2-(5-((5-tert-butyloxazol-2-yl)methylthio)thiazol-2-ylamino)-2-oxoethyl)phenoxy)butanamide] registered an IC50 of at most 100 nM.
In the case of `CC(C)(C)c1cnc(CSc2cnc(NC(=O)CCCCC(=O)Nc3ccccc3N)s2)o1` [Compound 16, N1-(2-aminophenyl)-N6-(5-((5-tert-butyloxazol-2-yl)methylthio)thiazol-2-yl)adipamide] it was at most 100 nM.
Regarding `CC(C)(C)c1cnc(CSc2cnc(NC(=O)CCCCCCC(=O)NOCCO)s2)o1` [Compound 7, N^1-(5-((5-tert-butyloxazol-2-yl)methylthio)thiazol-2-yl)-N^8-(2-hydroxyethoxy)octanediamide], the IC50 is at most 100 nM.
`CC(C)(C)c1cnc(CSc2cnc(NC(=O)CCCCCCC(=O)NOCc3ccccc3)s2)o1` [Compound 2, N^1-(benzyloxy)-N^8-(5-((5-tert-butyloxazol-2-yl)methylthio)thiazol-2-yl)octanediamide]: the IC50 was at most 100 nM.
On to `CC(C(=O)Nc1ncc(SCc2ncc(C(C)(C)C)o2)s1)c1ccc(OCCCC(=O)Nc2ccccc2N)cc1` (stereo not drawn) [Compound 57, N-(2-aminophenyl)-4-(4-(1-(5-((5-tert-butyloxazol-2-yl)methylthio)thiazol-2-ylamino)-1-oxopropan-2-yl)phenoxy)butanamide], for which the IC50 is at most 100 nM.
For `CC(C)(C)c1cnc(CSc2cnc(NC(=O)CCCCCCC(=O)Nc3ccccn3)s2)o1` [Compound 28, N^1-(5-((5-tert-butyloxazol-2-yl)methylthio)thiazol-2-yl)-N^8-(pyridin-2-yl)octanediamide], the IC50 is at most 100 nM.
Take `CC(C)(C)c1cnc(CSc2cnc(NC(=O)Nc3ccccc3N)s2)o1` [Compound 27, 1-(2-Aminophenyl)-3-(5-((5-tert-butyloxazol-2-yl)methyl-thio)thiazol-2-yl)urea]: the IC50 was at most 100 nM.
`CC(C)(C)c1cnc(CSc2cnc(NC(=O)CCCCCCC(=O)Nc3ccc(N)cc3)s2)o1` [Compound 21, N^1-(4-aminophenyl)-N^8-(5-((5-tert-butyloxazol-2-yl)methylthio)thiazol-2-yl)octanediamide] returned an IC50 of at most 100 nM.
As for `CC(C)(C)c1cnc(CSc2cnc(NC(=O)CCCC(=O)Nc3ccccc3N)s2)o1` [Compound 15, N1-(2-aminophenyl)-N5-(5-((5-tert-butyloxazol-2-yl)methylthio)thiazol-2-yl)glutaramide], the IC50 was at most 100 nM.
Molecule `CC(C)(C)c1cnc(CSc2cnc(NC(=O)CCCCCCC(=O)n3ncc(-c4ccc(F)cc4)c3N)s2)o1` [Compound 44, 8-(5-amino-4-(4-fluorophenyl)-1H-pyrazol-1-yl)-N-(5-((5-tert-butyloxazol-2-yl)methylthio)thiazol-2-yl)-8-oxooctanamide] gave an IC50 of at most 100 nM.
In the case of `CC(C)(C)c1cnc(CSc2cnc(NC(=O)CCCCCC(=O)Nc3ccccc3N)s2)o1` [Compound 17, N1-(2-aminophenyl)-N7-(5-((5-tert-butyloxazol-2-yl)methylthio)thiazol-2-yl)heptanediamide] it was at most 100 nM; in that of `CC(C)(C)c1cnc(CSc2cnc(NC(=O)Cc3ccc(OCCCC(=O)Nc4cc(F)ccc4N)cc3)s2)o1` [Compound 60, N-(2-amino-5-fluorophenyl)-4-(4-(2-(5-((5-tert-butyloxazol-2-yl)methylthio)thiazol-2-ylamino)-2-oxoethyl)phenoxy)butanamide], at most 100 nM; in that of `CC(C)(C)c1cnc(CSc2cnc(NC(=O)CCCCCCC(=O)Nc3cccnc3)s2)o1` [Compound 29, N^1-(5-((5-tert-butyloxazol-2-yl)methylthio)thiazol-2-yl)-N^8-(pyridin-3-yl)octanediamide], at most 100 nM.
The molecule `CONC(=O)/C=C/c1ccc(C(=O)Nc2ncc(SCc3ncc(C(C)(C)C)o3)s2)cc1` [Compound 38, (E)-N-(5-((5-tert-butyloxazol-2-yl)methylthio)thiazol-2-yl)-4-(3-(methoxyamino)-3-oxoprop-1-enyl)benzamide] registered an IC50 of at most 100 nM.
In the case of `CC(=O)Nc1ccccc1NC(=O)CCCCCCC(=O)Nc1ncc(SCc2ncc(C(C)(C)C)o2)s1` [Compound 19, N^1-(2-acetamidophenyl)-N^8-(5-((5-tert-butyloxazol-2-yl)methylthio)thiazol-2-yl)octanediamide] it was at most 100 nM; in that of `CC(C)(C)c1cnc(CSc2cnc(NC(=O)CCCCCCC(=O)Nc3cccc(N)c3)s2)o1` [Compound 22, N^1-(3-aminophenyl)-N^8-(5-((5-tert-butyloxazol-2-yl)methylthio)thiazol-2-yl)octanediamide], at most 100 nM; in that of `CC(C)(C)c1cnc(CSc2cnc(NC(=O)CCCCCCC(=O)n3nnc4ccccc43)s2)o1` [Compound 40, 8-(1H-benzo[d][1,2,3]triazol-1-yl)-N-(5-((5-tert-butyloxazol-2-yl)methylthio)thiazol-2-yl)-8-oxooctanamide], at most 100 nM.
The molecule `CC(C)(C)c1cnc(CSc2cnc(NC(=O)CCCCCCC(=O)Nc3ccc(F)cc3N)s2)o1` [Compound 23, N^1-(2-amino-4-fluorophenyl)-N^8-(5-((5-tert-butyloxa-zol-2-yl)methylthio)thiazol-2-yl)octanediamide] showed an IC50 of at most 100 nM.
Take `CC(C)(C)c1cnc(CSc2cnc(NC(=O)C(=O)Nc3ccccc3)s2)o1` [Compound 11]: the IC50 is 100 to 1000 nM.
In turn, `CC(C)(C)c1cnc(CSc2cnc(NC(=O)Cc3ccc(OCCCC(=O)Nc4cccnc4)cc3)s2)o1` [Compound 63, 4-(4-(2-(5-((5-tert-butyloxazol-2-yl)methylthio)thiazol-2-ylamino)-2-oxoethyl)phenoxy)-N-(pyridin-3-yl)butanamide] yielded an IC50 of at most 100 nM.
Molecule `CC(Sc1cnc(NC(=O)CCCCCCC(=O)Nc2ccccc2N)s1)c1ncc(C(C)(C)C)o1` (stereo not drawn) [Compound 20, N^1-(2-aminophenyl)-N^8-(5-(1-(5-tert-butyloxazol-2-yl)ethylthio)thiazol-2-yl)octanediamide] had an IC50 of at most 100 nM.
Molecule `CC(C)(C)c1cnc(CSc2cnc(NC(=O)CCCCCCC(=O)Nc3n[nH]c4ccccc34)s2)o1` [Compound 41] returned a half-maximal inhibitory concentration (IC50) of at most 100 nM.
The molecule `CN1OC(=O)CC1c1ccc(C(=O)Nc2ncc(SCc3ncc(C(C)(C)C)o3)s2)cc1` (stereo not drawn) [Compound 51, N-(5-((5-tert-butyloxazol-2-yl)methylthio)thiazol-2-yl)-4-(2-methyl-5-oxoisoxazolidin-3-yl)benzamide] displayed an IC50 of at most 100 nM.
`CONC(=O)CCCCCCC(=O)Nc1ncc(SCc2ncc(C(C)(C)C)o2)s1` [Compound 1, N^1-(5-((5-tert-butyloxazol-2-yl)methylthio)thiazol-2-yl)-N^8-methoxyoctanediamide] had an IC50 of at most 100 nM.
On to `CC(C)(C)c1cnc(CSc2cnc(NC(=O)CCCCCCC(=O)Nc3c[nH]c4ccccc34)s2)o1` [Compound 50], for which the IC50 was at most 100 nM.
